Results as given in paper PMC9146984, “A Novel Proline-Rich Cathelicidin from the Alpaca Vicugna pacos with Potency to Combat Antibiotic-Resistant Bacteria: Mechanism of Action and the Functional Role of the C-Terminal Region” (Membranes, 2022).
≈ marks a conversion by molar mass, not a printed value. Where two headings read alike, the source gives them in different places. Where a SMILES comes first, the peptide text is derived from it.

Key:
E. coli = assay: Antimicrobial assay (MIC), E. coli strains; assay type: cell-based, Escherichia coli; settings: Mueller–Hinton broth without NaCl
Description: (§1) The reduction of resazurin to resorufin was measured.

[1] = test system: E. coli BL21 (DE3) Star cell extract, coupled transcription/translation of EGFP; assay: In vitro transcription/translation inhibition assay (cell-free EGFP synthesis); assay type: biochemical, Escherichia coli; settings: EGFP fluorescence, 2 h, 30 °C; at least two independent experiments in triplicate; read-out: IC50, inhibition of in vitro protein synthesis in the E. coli cell-free system
Description: To investigate the effect of cathelicidins on the coupled transcription/translation process, the peptides were added to a cell-free protein synthesis (CFPS) reaction mix with a plasmid encoding enhanced green fluorescent protein (EGFP) variant (F64L, S65T, Q80R, F99S, M153T, and V163A) under control of the T7 promoter as described previously with some modifications. Briefly, the peptides were dissolved in 0.1% BSA in water. Bac7[1–22] was used as a positive control inhibitor. The fluorescence of the sample without inhibitor was set as the 100% value. The reaction proceeded for 2 h in 96-well v-bottom black polystyrene microplates in a plate shaker (30 °C, 1000 rpm). The fluorescence of the synthesized EGFP was measured with the microplate reader AF2200 (λExc = 488 nm, λEm = 510 nm; Eppendorf, Hamburg, Germany). The experimental data were obtained from at least two independent experiments performed in triplicate. Non-linear regression curves were generated using GraphPad Prism v.8.0.1 (GraphPad Software Inc., San Diego, CA, USA).

E. coli BW25113 ΔmdtM = assay type: cell-based, Escherichia coli; settings: Mueller–Hinton broth, 24 h, 37 °C, median
Description: as §1

E. coli ATCC 25922 = assay type: cell-based, Escherichia coli; settings: ATCC 25922, 24 h
Description: as §1

E. coli BW25113 ΔsbmA = assay type: cell-based, Escherichia coli; settings: Mueller–Hinton broth, 24 h, 37 °C, median
Description: as §1

E. coli BW25113 = assay type: cell-based, Escherichia coli; settings: BW25113, 24 h
Description: as §1

E. coli BW25113 ΔompF = assay type: cell-based, Escherichia coli; settings: Mueller–Hinton broth, 24 h, 37 °C, median
Description: as §1

[2] = test system: human red blood cells (hRBC); assay: Hemolysis (hemoglobin release assay); assay type: cell-based; settings: 1.5 h incubation (Figure 3C)
Description: Hemolytic activity of the peptides was tested against the fresh suspension of human red blood cells (hRBC) using the hemoglobin release assay as described previously. Two experiments were performed with the hRBC from blood samples of independent donors. The quantitative data were represented as average means with standard deviations. The colorimetric 3-(4,5-dimethylthiazol-2-yl)-2,5-diphenyltetrazolium bromide (MTT) dye reduction assay was used to determine the cytotoxicity of the peptides against transformed human embryonic kidney cells (HEK293T). 10^4 cells per well in Dulbecco’s modified Eagle’s medium (DMEM/F12) supplemented with 10% fetal bovine serum (FBS; Invitrogen, Waltham, MA, USA) were placed into 96-well plates and then cultured in the CO2-incubator (5% CO2, 37 °C). After the media were removed, the peptides were dissolved in 100 µL of the same medium and added to cell cultures at different final concentrations. 20 h later, 20 μL of MTT (5 mg/mL; Sigma, St. Louis, MO, USA) was added to each well, and the plates were incubated for 4 h at 37 °C. Then, the media were discarded and a 100 µL dimethyl sulfoxide-isopropanol mixture at a ratio of 1:1 (v/v) was added to each well to dissolve the crystallized formazan. The absorbance at 570 nm was measured by a microplate reader AF2200 (Eppendorf, Hamburg, Germany). […]

[3] = test system: E. coli ML-35p cytoplasmic membrane; assay: Cytoplasmic membrane permeabilization (ONPG hydrolysis); assay type: cell-based, Escherichia coli; settings: PBS, 37 °C, OD405, 2.5 mM ONPG; two independent experiments
Description: To examine the ability of the peptides to affect the barrier function of the cytoplasmic bacterial membrane, we slightly modified the previously described procedure with the use of the E. coli ML-35p strain constitutively expressing cytoplasmic β-galactosidase but lacking lactose permease. The state of the E. coli ML-35p inner membrane was assessed based on its permeability to chromogenic marker o-nitrophenyl-β-D-galactopyranoside (ONPG, AppliChem, Darmstadt, Germany), which is the β-galactosidase substrate. The cells were incubated in the trypticase soy broth (TSB) for 16 h at 37 °C, washed three times with phosphate-buffered saline (PBS, pH 7.4) to remove residual growth media, adjusted to the concentration of 2.5 × 10^8 CFU/mL, and stored on ice until used. The assay was performed in PBS as well. The final concentration of E. coli ML-35p cells was 2.5 × 10^7 CFU/mL. The concentration of ONPG was 2.5 mM. Peptide samples were placed in the wells of a 96-well plate with a non-binding surface (NBS, Corning #3641), and the optical density (OD) of the solution rose due to the appearance of o-nitrophenol was measured at 405 nm using a microplate reader AF2200 (Eppendorf, Hamburg, Germany). The final volume in each well was 200 µL. Assays were performed at 37 °C under stirring at 500 rpm. Control experiments were performed under the same conditions without adding a peptide. Two independent experiments were performed, and the curve pattern was similar.

[4] = test system: human embryonic kidney cells (HEK293T); assay: Cytotoxicity (MTT assay); assay type: cell-based; settings: HEK293T, 20 h incubation, MTT (Figure 3D)
Description: Hemolytic activity of the peptides was tested against the fresh suspension of human red blood cells (hRBC) using the hemoglobin release assay as described previously. Two experiments were performed with the hRBC from blood samples of independent donors. The quantitative data were represented as average means with standard deviations. The colorimetric 3-(4,5-dimethylthiazol-2-yl)-2,5-diphenyltetrazolium bromide (MTT) dye reduction assay was used to determine the cytotoxicity of the peptides against transformed human embryonic kidney cells (HEK293T). 10^4 cells per well in Dulbecco’s modified Eagle’s medium (DMEM/F12) supplemented with 10% fetal bovine serum (FBS; Invitrogen, Waltham, MA, USA) were placed into 96-well plates and then cultured in the CO2-incubator (5% CO2, 37 °C). After the media were removed, the peptides were dissolved in 100 µL of the same medium and added to cell cultures at different final concentrations. 20 h later, 20 μL of MTT (5 mg/mL; Sigma, St. Louis, MO, USA) was added to each well, and the plates were incubated for 4 h at 37 °C. Then, the media were discarded and a 100 µL dimethyl sulfoxide-isopropanol mixture at a ratio of 1:1 (v/v) was added to each well to dissolve the crystallized formazan. The absorbance at 570 nm was measured by a microplate reader AF2200 (Eppendorf, Hamburg, Germany). The optical density in the wells containing cells cultured without the peptides was assumed to represent 100% cell viability. Two independent experiments were performed for each peptide.

With CC[C@H](C)[C@H](NC(=O)[C@H](CCCNC(=N)N)NC(=O)[C@@H](N)CCCNC(=N)N)C(=O)N[C@@H](CCCNC(=N)N)C(=O)N[C@@H](CCCNC(=N)N)C(=O)N1CCC[C@H]1C(=O)N[C@@H](CCCNC(=N)N)C(=O)N[C@@H](CC(C)C)C(=O)N1CCC[C@H]1C(=O)N[C@@H](CCCNC(=N)N)C(=O)N1CCC[C@H]1C(=O)N[C@@H](CCCNC(=N)N)C(=O)N[C@H](C(=O)N1CCC[C@H]1C(=O)N[C@@H](CCCNC(=N)N)C(=O)N1CCC[C@H]1C(=O)O)C(C)C [VicBac[1-16]] (H-RRIRRPRLPRPRVPRP-OH) the “killing of E. coli under salt-free conditions” value (E. coli) was 4 to 8 µM and the IC50 [1] was ~4 µM.

For CC[C@H](C)[C@H](NC(=O)[C@H](CCCNC(=N)N)NC(=O)[C@@H]1CCCN1C(=O)[C@H](CCCNC(=N)N)NC(=O)[C@@H]1CCCN1C(=O)[C@@H](NC(=O)[C@H](CCCNC(=N)N)NC(=O)[C@@H]1CCCN1C(=O)[C@H](CCCNC(=N)N)NC(=O)[C@@H]1CCCN1C(=O)[C@H](CC(C)C)NC(=O)[C@H](CCCNC(=N)N)NC(=O)[C@@H]1CCCN1C(=O)[C@H](CCCNC(=N)N)NC(=O)[C@H](CCCNC(=N)N)NC(=O)[C@@H](NC(=O)[C@H](CCCNC(=N)N)NC(=O)[C@@H](N)CCCNC(=N)N)[C@@H](C)CC)C(C)C)C(=O)O [VicBac[1-18]] (H-RRIRRPRLPRPRVPRPRI-OH; N-terminus and C-terminus assumed), the “Minimum inhibitory concentration, E. coli strain ΔmdtM” value (E. coli BW25113 ΔmdtM; 0.9% NaCl: +) was 2 µM (≈ 4.7 µg/mL), the “Minimum inhibitory concentration, E. coli strain ΔmdtM” value (E. coli BW25113 ΔmdtM; 0.9% NaCl: −) was 4 µM (≈ 9.39 µg/mL) and the “Minimum inhibitory concentration, E. coli strain ATCC 25922” value (E. coli ATCC 25922) was 2 µM (≈ 4.7 µg/mL). For the same compound, the “Minimum inhibitory concentration, E. coli strain ΔsbmA” value (E. coli BW25113 ΔsbmA; 0.9% NaCl: +) was > 64 µM, the “Minimum inhibitory concentration, E. coli strain ΔsbmA” value (E. coli BW25113 ΔsbmA; 0.9% NaCl: −) was 4 µM (≈ 9.39 µg/mL) and the “Minimum inhibitory concentration, E. coli strain BW25113” value (E. coli BW25113) was 4 µM (≈ 9.39 µg/mL). The “Minimum inhibitory concentration, E. coli strain ΔompF” value (E. coli BW25113 ΔompF; 0.9% NaCl: +) was 16 µM (≈ 37.6 µg/mL) and the “Minimum inhibitory concentration, E. coli strain ΔompF” value (E. coli BW25113 ΔompF; 0.9% NaCl: −) was 8 µM (≈ 18.8 µg/mL).

Melittin [reference compound] was tested, and the “concentration at which almost all cells were completely lysed” value [2] was < 4 µM, the “effect on E. coli ML-35p cytoplasmic membrane permeability for ONPG” value [3] was “significant damage” and the “concentration at which almost all cells were completely lysed” value [4] was < 4 µM.
